Reference: patent US20230203058A1, “MACROCYCLIC DIAMINE DERIVATIVES AS ENT INHIBITORS FOR THE TREATMENT OF CANCERS, AND COMBINATION THEREOF WITH ADENOSINE RECEPTOR ANTAGONISTS” (ITEOS BELGIUM SA, priority 2020, published 2023)
Where two headings read alike, the source gives them in different places.

Legend:
[1] = system: stimulated primary human T cells; test: T cell proliferation assay (rescue of proliferation in presence of ATP, CFSE dilution); type: cell-based; details: 100 uM ATP
Method: The aim of this study was to determine the potency of equilibrative nucleoside transporter 1 (ENT1) inhibitors to rescue proliferation by stimulated primary human T cells incubated in the presence of 100 uM Adenosine triphosphate (ATP), in baseline conditions (condition A) or in the presence of various proteins known to bind small molecules (condition B). Condition A: X-VIVO15 Condition B: X-VIVO15, 2% Human Serum Albumine (HSA) and 0,1% α-1-Acid Glycoprotein (AAG)
Cryopreserved purified human CD3+ T cells were thawed and washed twice with RPMI1640 medium, UltraGlutamine containing 10% hiFBS.
Cells were suspended in PBS containing 10% hiFBS. Cells were stained with CFSE by adding 2 µM solution in PBS, to get a final 1 µM CFSE solution. Cells were incubated while rotating for 5 minutes. Reaction was stopped by adding PBS with 10% FBS and cells were centrifuged for 5 minutes at 1500 rpm.
Cells were resuspended at 1.6 ×10^6 cells/mL, either in X-VIVO15 medium or in 4% Human Serum Albumin and 0,2% α-1-Acid Glycoprotein. 50 µL of cell suspension (8×10^4 T cells) was added to wells of sterile round-bottom 96-well plates. Cells were activated by adding 50 µL of anti-CD3 anti-CD28 coated microbeads, suspended either in XVIVO-15 medium or in 4% HSA and 0,2% α-1-Acid Glycoprotein, at a ratio of one microbead per two cells. Serial dilutions of the ENT1 inhibitors were prepared in X-VIVO15 from 10 mM stock solutions in DMSO, and 50 µL was added to the wells. ATP powder was diluted in X-VIVO15, and 50 µL of this compound was added to the wells to reach a final assay concentration of 100 µM. Final volume of 200 µL. The experiments were also performed in 384 well plates - all volumes reduced by a factor of 4 (12,5 µL) with a final volume of 50 µL. Experiments were performed in duplicate. The cells were placed in a 37° C. humidified tissue culture incubator with 5% CO2 for 72 hours for 96 well plates, 96 hours for 384 well plates. After 72 or 96 hours, proliferation was measured determined by CFSE dilution via flow cytometry.

[2] = molecular target: T1, human ENT1 (Homo sapiens, UniProt Q99808); test: ENT1 binding assay (competition with Sahenta-DY647 on JAR cells); design: JAR cells expressing ENT1 were bought from ATCC® (HTB-144TM); host or cells: JAR cells (human choriocarcinoma line; whole cells); details: competition with Sahenta-DY647 100 nM, 4° C.
T1 sequence (Q99808 1-456): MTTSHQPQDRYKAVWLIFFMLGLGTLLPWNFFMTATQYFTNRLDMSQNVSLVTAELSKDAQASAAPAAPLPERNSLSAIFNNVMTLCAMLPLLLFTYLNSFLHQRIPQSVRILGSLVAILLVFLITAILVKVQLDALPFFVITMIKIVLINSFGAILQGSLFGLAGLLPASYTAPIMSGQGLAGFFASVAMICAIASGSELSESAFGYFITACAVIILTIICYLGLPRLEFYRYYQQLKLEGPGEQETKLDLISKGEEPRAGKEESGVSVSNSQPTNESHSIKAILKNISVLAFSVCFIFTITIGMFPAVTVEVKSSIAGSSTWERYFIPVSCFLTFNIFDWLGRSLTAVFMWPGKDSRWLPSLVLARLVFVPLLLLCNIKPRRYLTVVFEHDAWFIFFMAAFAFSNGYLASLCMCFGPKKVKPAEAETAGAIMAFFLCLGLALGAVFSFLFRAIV
Method in brief: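 Competition binding on intact JAR cells (50000 per well) in HBSS with 10 mM Hepes and 0.1% BSA. Cells pre-incubated with compound 30 min at 4 °C, then Sahenta-DY647 added at its IC90 (100 nM) for another 30 min at 4 °C; after washing, fluorescence read at Ex 630/Em 670 nm.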

[3] = Condition A: X-VIVO15, read-out: T Cell proliferation (Condition A) IC50
[4] = Condition B: X-VIVO15, 2% HSA and 0,1% AAG, read-out: (2) T Cell proliferation (Condition B) IC50

SMILES	IC50 [2]	IC50 [1, 3]	IC50 [1, 4]
COc1cc2cc(c1OC)OCCCC(OC(=O)C1CC1)CCN1CCCN(CCCOC2=O)CC1 (stereo not shown) [Compound 60, 74,75-dimethoxy-6-oxo-5,8-dioxa-1(1,4)-diazepana-7(1,3)-benzenacyclotetradecaphane-12-yl cyclopropanecarboxylate]	1 to 20 nM	1 to 20 nM	> 500 nM
COc1cc2cc(c1OC)OCCC[C@@H](O)CCN1CCCN(CCCOC2=O)CC1 [Compound 39, (12R)-12-hydroxy-74,75-dimethoxy-5,8-dioxa-1(1,4)-diazepana-7(1,3)-benzenacyclotetradecaphan-6-one]	> 500 nM	20 to 500 nM	> 500 nM
COc1cc(C(=O)O[C@@H]2CCCOc3cc(cc(OC)c3OC)C(=O)OCCCN3CCCN(CC2)CC3)cc(OC)c1OC [Compound 1, (12R)-74,75-dimethoxy-6-oxo-5,8-dioxa-1(1,4)-diazepana-7(1,3)-benzenacyclotetradecaphane-12-yl 3,4,5-trimethoxybenzoate]	1 to 20 nM	< 1 nM	< 1 nM
COc1cc2cc(c1OC)OCCCC(OC(=O)c1c[nH]nn1)CCN1CCCN(CCCOC2=O)CC1 (stereo not shown) [Compound 58, 74,75-dimethoxy-6-oxo-5,8-dioxa-1(1,4)-diazepana-7(1,3)-benzenacyclotetradecaphane-12-yl 1 H-1,2,3-triazole-4-carboxylate]	1 to 20 nM	1 to 20 nM	> 500 nM
COc1cc2cc(c1OC)OCCC[C@H](OC(=O)c1ccccc1)CCN1CCCN(CCCOC2=O)CC1 [Compound 33, (12S)-74,75-dimethoxy-6-oxo-5,8-dioxa-1(1,4)-diazepana-7(1,3)-benzenacyclotetradecaphane-12-yl benzoate]	> 500 nM	> 500 nM	> 500 nM
COc1cc2cc(c1OC)CCC[C@@H](OC(=O)c1cc(OC)c(OC)c(OC)c1)CCN1CCCN(CCCNC2=O)CC1 [Compound 14, (11R)-74,75-dimethoxy-6-oxo-5-aza-1(1,4)-diazepana-7(1,3)-benzenacyclotridecaphane-11-yl 3,4,5-trimethoxybenzoate]	1 to 20 nM	1 to 20 nM	> 500 nM
COc1cc2cc(c1OC)OCCC[C@@H](OC(=O)c1ccccc1)CCN1CCCN(CCCOC2=O)CC1 [Compound 32, (12R)-74,75-dimethoxy-6-oxo-5,8-dioxa-1(1,4)-diazepana-7(1,3)-benzenacyclotetradecaphane-12-yl benzoate]		< 1 nM	20 to 500 nM
COc1cc2cc(c1OC)OCCCC(OC(=O)c1cccc(S(C)(=O)=O)c1)CCN1CCCN(CCCOC2=O)CC1 (stereo not shown) [Compound 45, 74,75-dimethoxy-6-oxo-5,8-dioxa-1(1,4)-diazepana-7(1,3)-benzenacyclotetradecaphane-12-yl 3-(methylsulfonyl)benzoate]	1 to 20 nM		
COc1cc2cc(c1OC)OCCCC(OC(=O)c1ccc(F)cc1)CCN1CCCN(CCCOC2=O)CC1 (stereo not shown) [Compound 29, 74,75-dimethoxy-6-oxo-5,8-dioxa-1(1,4)-diazepana-7(1,3)-benzenacyclotetradecaphane-12-yl 4-fluorobenzoate]	1 to 20 nM		
COc1cc2cc(c1OC)OCCCC(OC(=O)c1ccc(Br)c(C#N)c1)CCN1CCCN(CCCOC2=O)CC1 (stereo not shown) [Compound 48, 74,75-dimethoxy-6-oxo-5,8-dioxa-1(1,4)-diazepana-7(1,3)-benzenacyclotetradecaphane-12-yl 4-bromo-3-cyanobenzoate]	1 to 20 nM		
COc1cc2cc(c1OC)OCCC[C@@H](OC(=O)c1ccccc1)CCN1CCCN(CCCOC2=O)CC1 [Compound 31, (12R)-74,75-dimethoxy-6-oxo-5,8-dioxa-1(1,4)-diazepana-7(1,3)-benzenacyclotetradecaphane-12-yl benzoate]	1 to 20 nM		
COc1cc(C(=O)O[C@H]2CCCn3ncc4c(Cl)cc(cc43)C(=O)NCCCN3CCCN(CC2)CC3)cc(OC)c1OC [Compound 15, (10S)-14-chloro-2-oxo-11H-3-aza-1(6,1)-indazola-7(1,4)-diazepanacyclotridecaphane-10-yl 3,4,5-trimethoxybenzoate]	> 500 nM		
COc1cc2cc(c1OC)OCCCC(OC(=O)c1ccc(O)nc1)CCN1CCCN(CCCOC2=O)CC1 (stereo not shown) [Compound 55, 74,75-dimethoxy-6-oxo-5,8-dioxa-1(1,4)-diazepana-7(1,3)-benzenacyclotetradecaphane-12-yl 6-hydroxynicotinate]	1 to 20 nM		
COc1cc(C(=O)O[C@@H]2CCCOc3cc(cc(OC)c3OC)C(=O)OCCCC3CCN(CC3)CC2)cc(OC)c1OC [Compound 34, (R)-74,75-dimethoxy-6-oxo-5,8-dioxa-1(4,1)-piperidina-7(1,3)-benzenacyclotetradecaphane-12-yl 3,4,5-trimethoxybenzoate]	1 to 20 nM		

Continued, in another order:

IC50 [2]	SMILES	IC50 [1, 3]	IC50 [1, 4]
1 to 20 nM	COc1cc2cc(c1OC)OCCCC(OC(=O)CCC(=O)N(C)C)CCN1CCCN(CCCOC2=O)CC1 (stereo not shown) [Compound 99, 74,75-dimethoxy-6-oxo-5,8-dioxa-1(1,4)-diazepana-7(1,3)-benzenacyclotetradecaphane-12-yl 4-(dimethylamino)-4-oxobutanoate]	< 1 nM	20 to 500 nM
1 to 20 nM	COc1cc2cc(c1OC)OCCCC(OC(=O)CCCC#N)CCN1CCCN(CCCOC2=O)CC1 (stereo not shown) [Compound 96, 74,75-dimethoxy-6-oxo-5,8-dioxa-1 (1,4)-diazepana-7(1,3)-benzenacyclotetradecaphane-12-yl 4-cyanobutanoate]	1 to 20 nM	> 500 nM
1 to 20 nM	COc1cc2cc(c1OC)OCCCC(OC(=O)CCn1cccn1)CCN1CCCN(CCCOC2=O)CC1 (stereo not shown) [Compound 94, 74,75-dimethoxy-6-oxo-5,8-dioxa-1 (1,4)-diazepana-7(1,3)-benzenacyclotetradecaphane-12-yl 3-(1H-pyrazol-1-yl)propanoate]	1 to 20 nM	> 500 nM
1 to 20 nM	COc1cc2cc(c1OC)OCCCC(OC(=O)CCNC(C)=O)CCN1CCCN(CCCOC2=O)CC1 (stereo not shown) [Compound 100, 74,75-dimethoxy-6-oxo-5,8-dioxa-1(1,4)-diazepana-7(1,3)-benzenacyclotetradecaphane-12-yl 3-acetamidopropanoate]	1 to 20 nM	> 500 nM
1 to 20 nM	COc1cc2cc(c1OC)OCCCC(OC(=O)C1CCC(OC)CC1)CCN1CCCN(CCCOC2=O)CC1 (stereo not shown) [Compound 70, 74,75-dimethoxy-6-oxo-5,8-dioxa-1(1,4)-diazepana-7(1,3)-benzenacyclotetradecaphane-12-yl 4-methoxycyclohexane-1-carboxylate]		
1 to 20 nM	COc1cc2cc(c1OC)OCCCC(OC(=O)CCn1cncn1)CCN1CCCN(CCCOC2=O)CC1 (stereo not shown) [Compound 102, 74,75-dimethoxy-6-oxo-5,8-dioxa-1 (1,4)-diazepana-7(1,3)-benzenacyclotetradecaphane-12-yl 3-(1H-1,2,4-triazol-1-yl)propanoate]		
1 to 20 nM	COc1cc2cc(c1OC)OCCCC(OC(=O)c1ccc(F)c(C#N)c1)CCN1CCCN(CCCOC2=O)CC1 (stereo not shown) [Compound 86, 74,75-dimethoxy-6-oxo-5,8-dioxa-1(1,4)-diazepana-7(1,3)-benzenacyclotetradecaphane-12-yl 3-cyano-4-fluorobenzoate]		
1 to 20 nM	COc1cc2cc(c1OC)OCCCC(OC(=O)c1ccc(C#N)cc1)CCN1CCCN(CCCOC2=O)CC1 (stereo not shown) [Compound 87, 74,75-dimethoxy-6-oxo-5,8-dioxa-1(1,4)-diazepana-7(1,3)-benzenacyclotetradecaphane-12-yl 4-cyanobenzoate]		
